The values below are quoted from earlier work in patent US8748589B2, “Complex crystalline sugar comprising D-psicose and D-allose and process for production of the same” (priority 2005, dated 2014).

For the series, the system named is L-rhamnose isomerase. Conditions: for inhibition of L-rhamnose isomerase activity by coexisting chelating agent: chelating agent present at the time of measurement of the activity.

Turning to `O=C(O)CN(CCN(CC(=O)O)CC(=O)O)CC(=O)O` [EDTA], the “inhibition of L-rhamnose isomerase activity by coexisting chelating agent” value is listed as “Almost no activity was inhibited”. `O=C(O)CN(CCOCCOCCN(CC(=O)O)CC(=O)O)CC(=O)O` [EGTA]: the “inhibition of L-rhamnose isomerase activity by coexisting chelating agent” value is recorded as “Almost no activity was inhibited”. As for `[Co+2]` [cobalt ion], the “inhibition of L-rhamnose isomerase activity by metal ion” value (1 mM cobalt ion) is recorded as “About 30%”.
